Measurements taken from patent US9328374B2, “Selective culture medium and method for detecting carbapenem-resistant bacteria in a test sample” (Institut National de la Sante et de la Recherche Medicale …, priority 2011, dated 2016).

Legend:
P. stuartii = assay: MIC of imipenem, ertapenem and meropenem; type: cell-based, Providencia stuartii
K. pneumoniae = assay: MIC of imipenem, ertapenem and meropenem; type: cell-based, Klebsiella pneumoniae

## C[C@@H](O)[C@H]1C(=O)N2C(C(=O)O)=C(SCCN=CN)C[C@H]12 [IPM, imipenem]
P. stuartii; P. stuartii NDM (NDM-1 + OXA-1 + CMY-6)
  MIC: 12 µg/mL
P. stuartii; P. stuartii PS1 (NDM-1 + CMY-6 + OXA-1)
  MIC: 12 µg/mL
P. stuartii; P. stuartii PS1, NDM-1 + CMY-6 + OXA-1
  MIC: 12 µg/mL
P. stuartii; strain P. stuartii PS1, NDM-1 + CMY-6 + OXA-1
  MIC: 12 µg/mL
K. pneumoniae; K. pneumoniae 1 OMA (NDM-1 + CTX-M-15 + OXA-1 + OXA-9)
  MIC: >32 µg/mL
K. pneumoniae; K. pneumoniae 2 OLA (NDM-1 + OXA-1)
  MIC: 1.5 µg/mL
K. pneumoniae; K. pneumoniae 7 AFR (NDM-1 + OXA-1 + CTX-M-15 + CMY-6 + TEM-1)
  MIC: >32 µg/mL
K. pneumoniae; K. pneumoniae 7AFR, NDM-1 + TEM-1 + CTX-M-15 + CMY-6 + OXA-1
  MIC: >32 µg/mL
K. pneumoniae; K. pneumoniae 0227, SHV-1, non-carbapenemase producer
  MIC: 0.19 µg/mL
K. pneumoniae; K. pneumoniae 588, KPC-2 + TEM-1 + SHV-11 + OXA-9
  MIC: 24 µg/mL
K. pneumoniae; K. pneumoniae 1022, SHV-2a + SHV-28, non-carbapenemase producer
  MIC: 0.5 µg/mL
K. pneumoniae; K. pneumoniae 1025 (CTX-M-14 + TEM-1 + SHV-11)
  MIC: 0.12 µg/mL
K. pneumoniae; K. pneumoniae 1025, CTX-M-14 + TEM-1 + SHV-11, non-carbapenemase producer
  MIC: 0.12 µg/mL
K. pneumoniae; K. pneumoniae 2303, KPC-2 + SHV-11
  MIC: >32 µg/mL
K. pneumoniae; K. pneumoniae 6642 GEN (NDM-1 + CTX-M-15 + OXA-1 + OXA-10)
  MIC: 1 µg/mL
K. pneumoniae; K. pneumoniae 6642 GEN, NDM-1 + CTX-M-15 + OXA-1 + OXA-10
  MIC: 1 µg/mL
K. pneumoniae; K. pneumoniae 6759 GEN (NDM-1 + CTX-M-15 + OXA-1 + OXA-9 + OXA-10 + CMY16)
  MIC: 12 µg/mL
K. pneumoniae; K. pneumoniae 6759 GEN, NDM-1 + CTX-M-15 + CMY-16 + OXA-1 + OXA-9 + OXA-10
  MIC: 12 µg/mL
K. pneumoniae; K. pneumoniae 7725 (SHV-1)
  MIC: 0.19 µg/mL
K. pneumoniae; K. pneumoniae 7725, SHV-1, non-carbapenemase producer
  MIC: 0.19 µg/mL
K. pneumoniae; K. pneumoniae 10112, CTX-M-15 + TEM-1 + SHV-11, non-carbapenemase producer
  MIC: 0.5 µg/mL
K. pneumoniae; K. pneumoniae 0404020, VIM-1+ SHV-5
  MIC: >32 µg/mL
K. pneumoniae; K. pneumoniae 0404024, VIM-1
  MIC: >32 µg/mL
K. pneumoniae; K. pneumoniae 0511135, VIM-1+ SHV-12
  MIC: >32 µg/mL
K. pneumoniae; K. pneumoniae 648236 (SHV-2a)
  MIC: 0.25 µg/mL
K. pneumoniae; K. pneumoniae 648236, SHV-2a, non-carbapenemase producer, porin deficiency
  MIC: 0.25 µg/mL
K. pneumoniae; K. pneumoniae 0709121, IMP-1
  MIC: 1.5 µg/mL
K. pneumoniae; K. pneumoniae 0709124, IMP-1 + TEM-15
  MIC: 8 µg/mL
K. pneumoniae; K. pneumoniae 0709125, IMP-1 + TEM-1 + SHV-12
  MIC: 1.5 µg/mL
K. pneumoniae; K. pneumoniae 0709127, IMP-1 + TEM-1
  MIC: 0.5 µg/mL
K. pneumoniae; K. pneumoniae A28006, KPC-2 + TEM-1 + CTX-M-2 + SHV-11
  MIC: 16 µg/mL
K. pneumoniae; K. pneumoniae A33504, KPC-2 + TEM-1 + SHV-11 + CTX-M-2 + OXA-9
  MIC: >32 µg/mL
K. pneumoniae; K. pneumoniae AEL, OXA-48 + CTX-M-15 + SHV-28 + OXA-1
  MIC: 0.5 µg/mL
K. pneumoniae; K. pneumoniae ALE (CTX-M-15 + SHV-1)
  MIC: 1 µg/mL
K. pneumoniae; K. pneumoniae ALE, CTX-M-15 + SHV-1, non-carbapenemase producer, porin deficiency
  MIC: 1 µg/mL
K. pneumoniae; K. pneumoniae AMS (OXA-48 + TEM-1 + CTX-M-15 + OXA-1)
  MIC: 0.5 µg/mL
K. pneumoniae; K. pneumoniae AMS, OXA-48 + TEM-1 + CTX-M-15 + OXA-1
  MIC: 0.5 µg/mL
K. pneumoniae; K. pneumoniae BAJ (OXA-48 + TEM-1 + CTX-M-15 + SHV-28)
  MIC: 0.5 µg/mL
K. pneumoniae; K. pneumoniae BAJ, OXA-48 + TEM-1 + CTX-M-15 + SHV-28
  MIC: 0.5 µg/mL
K. pneumoniae; K. pneumoniae BED (CTX-M-15 + TEM-1 + SHV-1; Table 8: SHV-11)
  MIC: 1.5 µg/mL
K. pneumoniae; K. pneumoniae BED, CTX-M-15 + TEM-1 + SHV-11, non-carbapenemase producer, porin deficiency
  MIC: 1.5 µg/mL
K. pneumoniae; K. pneumoniae BEL (OXA-48)
  MIC: 1 µg/mL
K. pneumoniae; K. pneumoniae BEL, OXA-48
  MIC: 1 µg/mL
K. pneumoniae; K. pneumoniae BEN (OXA-48 + TEM-1 + CTX-M-15 + SHV-28)
  MIC: 0.38 µg/mL
K. pneumoniae; K. pneumoniae BEN, OXA-48 + TEM-1 + CTX-M-15 + SHV-28
  MIC: 0.38 µg/mL
K. pneumoniae; K. pneumoniae BER (TEM-1 + SHV-28)
  MIC: 1 µg/mL
K. pneumoniae; K. pneumoniae BER, SHV-28 + TEM-1, non-carbapenemase producer, porin deficiency
  MIC: 1 µg/mL
K. pneumoniae; K. pneumoniae BEY (OXA-48 + CTX-M-15 + TEM-1)
  MIC: 0.38 µg/mL
K. pneumoniae; K. pneumoniae BEY, OXA-48 + TEM-1 + CTX-M-15
  MIC: 0.38 µg/mL
K. pneumoniae; K. pneumoniae BIC (OXA-48)
  MIC: 0.5 µg/mL
K. pneumoniae; K. pneumoniae BIC, OXA-48
  MIC: 0.5 µg/mL
K. pneumoniae; K. pneumoniae BOU, OXA-48
  MIC: 0.38 µg/mL
K. pneumoniae; K. pneumoniae CHA (OXA-48 + TEM-1)
  MIC: 0.38 µg/mL
K. pneumoniae; K. pneumoniae CHA, OXA-48 + TEM-1
  MIC: 0.38 µg/mL
K. pneumoniae; K. pneumoniae COL (KPC-2 + TEM-1 + SHV-1 + CTX-M-15)
  MIC: 4 µg/mL
K. pneumoniae; K. pneumoniae COO (CTX-M-15 + SHV28)
  MIC: 8 µg/mL
K. pneumoniae; K. pneumoniae COO, CTX-M-15 + SHV-28, non-carbapenemase producer, porin deficiency
  MIC: 8 µg/mL
K. pneumoniae; K. pneumoniae DAL (OXA-48 + CTX-M-15 + TEM-1)
  MIC: 0.38 µg/mL
K. pneumoniae; K. pneumoniae DAL, OXA-48 + TEM-1 + CTX-M-15
  MIC: 0.38 µg/mL
K. pneumoniae; K. pneumoniae DIA, OXA-48 + TEM-1b + CTX-M-15 + SHV-11 + OXA-1
  MIC: >32 µg/mL
K. pneumoniae; K. pneumoniae DUW, OXA-48 + TEM-1 + CTX-M-15 + SHV-28
  MIC: 32 µg/mL
K. pneumoniae; K. pneumoniae EGY (OXA-48 + CTX-M-15)
  MIC: 2 µg/mL
K. pneumoniae; K. pneumoniae EGY, OXA-48 + CTX-M-15
  MIC: 2 µg/mL
K. pneumoniae; K. pneumoniae ELK (OXA-48 + TEM-1 + CTX-M-15 + SHV-11)
  MIC: 0.5 µg/mL
K. pneumoniae; K. pneumoniae ELK, OXA-48 + TEM-1 + CTX-M-15 + SHV-11
  MIC: 0.5 µg/mL
K. pneumoniae; K. pneumoniae ENN, VIM-1+ SHV-5
  MIC: 0.5 µg/mL
K. pneumoniae; K. pneumoniae FOS (CTX-M-15 + TEM-1 + SHV-11)
  MIC: 6 µg/mL
K. pneumoniae; K. pneumoniae FOS, CTX-M-15 + TEM-1 + SHV-11, non-carbapenemase producer, porin deficiency
  MIC: 6 µg/mL
K. pneumoniae; K. pneumoniae GES, KPC-2 + TEM-1 + SHV-11
  MIC: 6 µg/mL
K. pneumoniae; K. pneumoniae HOL (OXA-181 + CTX-M-15)
  MIC: 1 µg/mL
K. pneumoniae; K. pneumoniae HOL, OXA-181 + CTX-M-15
  MIC: 1 µg/mL
K. pneumoniae; K. pneumoniae HPA, OXA-48 + TEM-1 + CTX-M-15 + OXA-1
  MIC: 1.5 µg/mL
K. pneumoniae; K. pneumoniae IND (NDM-1 + OXA-1 + CTX-M-15)
  MIC: 1 µg/mL
K. pneumoniae; K. pneumoniae KAM, KPC-3 + TEM-1 + SHV-11
  MIC: 8 µg/mL
K. pneumoniae; K. pneumoniae KDH (DHA-2)
  MIC: 0.12 µg/mL
K. pneumoniae; K. pneumoniae KDH, DHA-2, non-carbapenemase producer, overexpressed AmpC
  MIC: 0.12 µg/mL
K. pneumoniae; K. pneumoniae KI2, NDM-1 + CTX-M-15 + OXA-1
  MIC: 1 µg/mL
K. pneumoniae; K. pneumoniae KIE, NDM-1 + SHV-38 + CMY-16 + OXA-10
  MIC: 0.75 µg/mL
K. pneumoniae; K. pneumoniae KPN (CTX-M-15)
  MIC: 0.12 µg/mL
K. pneumoniae; K. pneumoniae KPN, CTX-M-15, non-carbapenemase producer
  MIC: 0.12 µg/mL
K. pneumoniae; K. pneumoniae LEG (CTX-M-15 + TEM-1 + SHV-12)
  MIC: 0.75 µg/mL
K. pneumoniae; K. pneumoniae LEG, CTX-M-15 + TEM-1 + SHV-12, non-carbapenemase producer, porin deficiency
  MIC: 0.75 µg/mL
K. pneumoniae; K. pneumoniae LIB (OXA-48)
  MIC: >32 µg/mL
